Data as given in patent publication US20240239784A1, “INDOLE COMPOUNDS AND METHODS OF USE” (GENZYME CORPORATION, priority 2021, published 2024).

These compounds were tested on NBD1 (assay: Aggregation analysis of NBD1 thermal stability by differential static light scattering (DSLS)). Settings: compound at 100 μM; ΔTagg versus DMSO control.
Type: binding, Human
Procedure: Purified recombinant NBD1 was produced using previously described methods (A. Schmidt, J. L. Mendoza, P. J. Thomas (2011) Biochemical and Biophysical Approaches to Probe CFTR Structure (365-376) M. D. Amaral, K. Kunzelmann (eds.), Cysic Fibrosis, Methods in Molecular Biology 741, Springer Science+Business Media). The effect of test compounds on thermal stability of NBD1 was evaluated by differential static light scattering (DSLS) using the Harbinger Stargazer-384 instrument (Epiphyte Three, Toronto, Canada). Test compounds were dissolved and diluted to desired concentrations in 100% DMSO. The compounds or DMSO controls (100 nL) were stamped into wells of a […] low volume optical plate (Corning Inc., Corning, NY) using the Echo 555 acoustic liquid handler (Labcyte Inc., San Jose, CA).
NBD1 protein was diluted to 0.2 mg/ml in S200 buffer (50 mM Tris-HCl, 150 mM NaCl, 5 mM MgCl2, 2 mM ATP, 2 mM DTT, pH7.6) containing 1% glycerol. 10 uL of protein solution was aliquoted into the 384-well plate harboring the test compounds and 10 uL mineral oil was overlayed onto the protein solution, using the epMotion robotic liquid handler (Eppendorf North America, Hauppauge, NY). After placing into the Stargazer instrument, the plate was heated at 1° C. per minute to 70° C. Images were captured from 25° C. to 70° C. every 0.5° C. At the end of the experiment run, instrument software integrated image files and analyzed data automatically. A […] regression curve was generated for each well, representing the increase in light scattering over time. A temperature of aggregation (Tagg) was calculated based on the inflection point of the curve. To better compare data across experiments the average Tagg for DMSO control wells was calculated and subtracted from values for wells containing compounds to obtain a “ΔTagg” value. These ΔTagg values reflect stabilizing efficacy of the compounds.
In the case of `CS(=O)(=O)c1c(Oc2ccc(F)c(-c3nc(C(OCC(=O)O)c4ccccc4)c[nH]3)c2)c(F)cc2[nH]ccc12` (centres unmarked) [Example 73, 2-((2-(2-Fluoro-5-((6-fluoro-4-(methylsulfonyl)-1H-indol-5-yl)oxy)phenyl)-1H-imidazol-4-yl)(phenyl)methoxy)acetic acid], the “DSLS NBD1/3D Human Stability delta-T (° C.) @ 100 (μM)” value (“DSLS NBD1/3D Human Stability delta-T” below) is reported as “A (T ≥8° C.)”.
With `OCc1c(Oc2cccc(-c3ncn(Cc4ccccc4)n3)c2)ccc2[nH]ccc12` [Example 23, (5-(3-(1-Benzyl-1H-1,2,4-triazol-3-yl)phenoxy)-1H-indol-4-yl)methanol] the “DSLS NBD1/3D Human Stability delta-T” value was “B (4-8° C.)”.
`CC(O)(c1ccccc1)c1nnc(-c2cccc(Oc3ccc4[nH]ccc4n3)c2)[nH]1` (centres unmarked) [Example 16, 1-(5-(3-((1H-Pyrrolo[3,2-b]pyridin-5-yl)oxy)phenyl)-4H-1,2,4-triazol-3-yl)-1-phenylethan-1-ol] was tested, and the “DSLS NBD1/3D Human Stability delta-T” value was “B (4-8° C.)”.
For `NC(=O)Cc1c(Oc2cccc(-c3nnc(Cc4ccccc4)[nH]3)c2)ccc2[nH]ccc12` [Example 51, 2-(5-(3-(5-Benzyl-4H-1,2,4-triazol-3-yl)phenoxy)-1H-indol-4-yl)acetamide], the “DSLS NBD1/3D Human Stability delta-T” value was “B (4-8° C.)”.
With `COCC[S+]([O-])c1c(Oc2cccc(-c3ncc(C(C)(O)c4ccccc4)[nH]3)c2)c(F)cc2[nH]ccc12` (centres unmarked) [Example 62, 1-(2-(3-((6-Fluoro-4-((2-methoxyethyl)sulfinyl)-1H-indol-5-yl)oxy)phenyl)-1H-imidazol-5-yl)-1-phenylethan-1-ol] the “DSLS NBD1/3D Human Stability delta-T” value was “B (4-8° C.)”.
In the case of `O=C(O)Cc1c[nH]c2ccc(Oc3cccc(-c4nnc(Cc5ccccc5)[nH]4)c3)cc12` [Example 30, 2-(5-(3-(5-Benzyl-4H-1,2,4-triazol-3-yl)phenoxy)-1H-indol-3-yl)acetic acid], the “DSLS NBD1/3D Human Stability delta-T” value is reported as “C (≤4° C.)”.
With `CC(O)(c1ccccc1)c1c[nH]c(-c2cc(Oc3c(F)cc4[nH]ccc4c3CC(F)F)ccc2F)n1` (centres unmarked) [Example 25, 1-(2-(5-((4-(2,2-Difluoroethyl)-6-fluoro-1H-indol-5-yl)oxy)-2-fluorophenyl)-1H-imidazol-4-yl)-1-phenylethan-1-ol] the “DSLS NBD1/3D Human Stability delta-T” value was “B (4-8° C.)”.
For `CC(O)(c1ccccc1)c1cnc(-c2cccc(Oc3c(F)cc4[nH]ccc4c3S(C)(=O)=O)c2)[nH]1` (centres unmarked) [Example 5, 1-(2-(3-((6-Fluoro-4-(methylsulfonyl)-1H-indol-5-yl)oxy)phenyl)-1H-imidazol-5-yl)-1-phenylethan-1-ol], the “DSLS NBD1/3D Human Stability delta-T” value was “A (T ≥8° C.)”.
For `OC(c1ccccc1)c1cnc(-c2cccc(Oc3ccc4[nH]ccc4n3)c2)[nH]1` (centres unmarked) [Example 52, (2-(3-((1H-Pyrrolo[3,2-b]pyridin-5-yl)oxy)phenyl)-1H-imidazol-5-yl)(phenyl)methanol], the “DSLS NBD1/3D Human Stability delta-T” value was “B (4-8° C.)”.
`Cn1nc(-c2cccc(Oc3ccc4[nH]ccc4c3C(N)=O)c2)nc1Cc1ccccc1` [Example 57, 5-(3-(5-Benzyl-1-methyl-1H-1,2,4-triazol-3-yl)phenoxy)-1H-indole-4-carboxamide] was tested, and the “DSLS NBD1/3D Human Stability delta-T” value was “B (4-8° C.)”.
For `CC(O)(c1ccccc1)c1cnc(-c2cccc(Oc3cc(F)c4[nH]ccc4c3)c2)[nH]1` (centres unmarked) [Example 69, 1-(2-(3-((7-Fluoro-1H-indol-5-yl)oxy)phenyl)-1H-imidazol-5-yl)-1-phenylethan-1-ol], the “DSLS NBD1/3D Human Stability delta-T” value was “B (4-8° C.)”.
In the case of `CC(O)(c1ccccc1)c1cnc(-c2cccc(Oc3ccc4[nH]ccc4n3)c2)[nH]1` (centres unmarked) [Example 53, 1-(2-(3-((1H-Pyrrolo[3,2-b]pyridin-5-yl)oxy)phenyl)-1H-imidazol-5-yl)-1-phenylethan-1-ol], the “DSLS NBD1/3D Human Stability delta-T” value is reported as “B (4-8° C.)”.
For `CNC(=O)CNC(=O)c1c(Oc2cccc(-c3ncc(C(O)c4ccccc4)[nH]3)c2)ccc2[nH]ncc12` (centres unmarked) [Example 28, 5-(3-(5-(Hydroxy(phenyl)methyl)-1H-imidazol-2-yl)phenoxy)-N-(2-(methylamino)-2-oxoethyl)-1H-indazole-4-carboxamide], the “DSLS NBD1/3D Human Stability delta-T” value was “B (4-8° C.)”.
`O=C(O)CC(c1cccc(-c2nnc(Cc3ccccc3)[nH]2)c1)c1ccc2[nH]ccc2c1` (centres unmarked) [Example 37, 3-(3-(5-Benzyl-4H-1,2,4-triazol-3-yl)phenyl)-3˜(1H-indol-5-yl)propanoic acid] was tested, and the “DSLS NBD1/3D Human Stability delta-T” value was “C (≤4° C.)”.
`O=S(=O)(c1ccccc1)c1cnc(-c2cccc(Oc3ccc4[nH]ccc4c3)c2)[nH]1` [Example 32, 5-(3-(5-(Phenylsulfonyl)-1H-imidazol-2-yl)phenoxy)-1H-indole] was tested, and the “DSLS NBD1/3D Human Stability delta-T” value was “B (4-8° C.)”.
For `O=C(Cc1c(Oc2cccc(-c3nnc(Cc4ccccc4)[nH]3)c2)ccc2[nH]ccc12)NS(=O)(=O)C1CC1` [Example 12, 2-(5-(3-(5-Benzyl-4H-1,2,4-triazol-3-yl)phenoxy)-1H-indol-4-yl)-N-(cyclopropylsulfonyl)acetamide], the “DSLS NBD1/3D Human Stability delta-T” value was “A (T ≥8° C.)”.
With `CS(=O)(=O)c1c(Oc2cccc(-c3ncc(C(O)c4ccccc4)[nH]3)c2)c(F)cc2[nH]ccc12` (centres unmarked) [Example 14, (2-(3-((6-Fluoro-4-(methylsulfonyl)-1H-indol-5-yl)oxy)phenyl)-1H-imidazol-5-yl)(phenyl)methanol] the “DSLS NBD1/3D Human Stability delta-T” value was “A (T ≥8° C.)”.
In the case of `CNS(=O)(=O)c1c(Oc2ccc(F)c(-c3ncc(C(C)(O)c4ccccc4)[nH]3)c2)c(F)cc2[nH]ccc12` (centres unmarked) [Example 22, 6-Fluoro-5-(4-fluoro-3-(5-(1-hydroxy-1-phenylethyl)-1H-imidazol-2-yl)phenoxy)-N-methyl-1H-indole-4-sulfonamide], the “DSLS NBD1/3D Human Stability delta-T” value is reported as “B (4-8° C.)”.
For `COC(=O)c1c(Oc2cccc(-c3ncc(C(C)(O)c4ccccc4)[nH]3)c2)c(F)cc2[nH]ccc12` (centres unmarked) [Example 7, Methyl 6-fluoro-5-(3-(5-(1-hydroxy-1-phenylethyl)-1H-imidazol-2-yl)phenoxy)-1H-indole-4-carboxylate], the “DSLS NBD1/3D Human Stability delta-T” value was “B (4-8° C.)”.
`c1ccc(Cc2nnc(-c3cccc(Oc4ccc5[nH]cc6c5c4CNC6)c3)[nH]2)cc1` [Example 43, 6-(3-(5-Benzyl-4H-1,2,4-triazol-3-yl)phenoxy)-1,3,4,5-tetrahydropyrrolo[4,3,2-de]isoquinoline] was tested, and the “DSLS NBD1/3D Human Stability delta-T” value was “C (≤4° C.)”.
`CC(C)(c1ccccc1)c1cnc(-c2cc(Oc3c(F)cc4[nH]ccc4c3CCS(N)(=O)=O)ccc2F)[nH]1` [Example 75, 2-(6-Fluoro-5-(4-fluoro-3-(5-(2-phenylpropan-2-yl)-1H-imidazol-2-yl)phenoxy)-1H-indol-4-yl)ethane-1-sulfonamide] was tested, and the “DSLS NBD1/3D Human Stability delta-T” value was “B (4-8° C.)”.
`COCCS(=O)(=O)c1c(Oc2cccc(-c3ncc(C(C)(O)c4ccccc4)[nH]3)c2)c(F)cc2[nH]ccc12` (centres unmarked) [Example 61, 1-(2-(3-((6-Fluoro-4-((2-methoxyethyl)sulfonyl)-1H-indol-5-yl)oxy)phenyl)-1H-imidazol-5-yl)-1-phenylethan-1-ol] was tested, and the “DSLS NBD1/3D Human Stability delta-T” value was “B (4-8° C.)”.
`CC(O)(c1ccccc1)c1cnc(-c2cccc(Oc3c(F)cc4[nH]ccc4c3CO)c2)[nH]1` (centres unmarked) [Example 8, 1-(2-(3-((6-Fluoro-4-(hydroxymethyl)-1H-indol-5-yl)oxy)phenyl)-1H-imidazol-5-yl)-1-phenylethan-1-ol] was tested, and the “DSLS NBD1/3D Human Stability delta-T” value was “A (T ≥8° C.)”.
